{"source": "patent US9169254B2", "about": "“Spiroimidazolone derivative” (Chugai Seiyaku Kabushiki Kaisha, priority 2009, dated 2015)", "data": [{"target": "T1, human PTH1 receptor (Homo sapiens, UniProt Q03431)", "T1 sequence (Q03431 27-593)": "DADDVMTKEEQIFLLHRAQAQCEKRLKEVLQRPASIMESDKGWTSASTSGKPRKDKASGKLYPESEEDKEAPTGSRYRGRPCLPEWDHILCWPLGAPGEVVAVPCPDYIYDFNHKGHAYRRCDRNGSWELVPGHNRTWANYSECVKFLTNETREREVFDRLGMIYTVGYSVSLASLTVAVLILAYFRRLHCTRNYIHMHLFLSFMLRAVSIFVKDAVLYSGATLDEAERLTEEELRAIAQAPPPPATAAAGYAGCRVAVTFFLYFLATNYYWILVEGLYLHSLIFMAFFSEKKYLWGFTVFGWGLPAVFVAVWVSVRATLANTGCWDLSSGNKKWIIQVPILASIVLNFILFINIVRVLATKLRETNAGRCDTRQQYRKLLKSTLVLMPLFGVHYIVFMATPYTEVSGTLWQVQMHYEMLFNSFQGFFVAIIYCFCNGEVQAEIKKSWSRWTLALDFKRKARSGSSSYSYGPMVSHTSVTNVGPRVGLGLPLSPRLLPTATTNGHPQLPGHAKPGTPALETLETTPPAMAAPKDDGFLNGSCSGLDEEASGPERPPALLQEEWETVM", "assay": "In vitro cAMP signal activity in HKRK-B7 cells (LLC-PK1 cells overexpressing the human PTH1 receptor)", "format": "cell-based", "conditions": "HKRK-B7 cells; compound at 1×10^−3 M; cAMP produced as percentage of that produced by hPTH(1-34) at 100 nM", "units": {"cAMP production activity (%)": "%"}, "values": [{"compound": "COCCN(C(N)=O)c1cc(C)c(CCS(=O)(=O)N2CCC3(CC2)N=C(C2CCC(CCC(F)(F)F)CC2)NC3=O)c(C)c1", "note": "(stereo not shown) [Compound 827, 1-[3,5-dimethyl-4-(2-{4-oxo-2-[4-(3,3,3-trifluoro-propyl)-cyclohexyl]-1,3,8-triaza-spiro[4.5]dec-1-ene-8-sulfonyl}-ethyl)-phenyl]-1-(2-methoxy-ethyl)-urea]", "cAMP production activity (%)": 78}, {"compound": "Cc1cc(N(C(N)=O)C(C)C)cc(C)c1CCS(=O)(=O)N1CCC2(CC1)N=C(C1CCC(C)CC1)NC2=O", "note": "(stereo not shown) [Compound 828, 1-(3,5-dimethyl-4-{2-[2-(4-methyl-cyclohexyl)-4-oxo-1,3,8-triaza-spiro[4.5]dec-1-ene-8-sulfonyl]-ethyl}-phenyl)-1-isopropyl-urea]", "cAMP production activity (%)": 92}, {"compound": "CCc1cc(N(C)C(N)=O)ccc1CCS(=O)(=O)N1CCC2(CC1)N=C(C1CCC(C)CC1)NC2=O", "note": "(stereo not shown) [Compound 829, 1-(3-ethyl-4-{2-[2-(4-methyl-cyclohexyl)-4-oxo-1,3,8-triaza-spiro[4.5]dec-1-ene-8-sulfonyl]-ethyl}-phenyl)-1-methyl-urea]", "cAMP production activity (%)": 79}, {"compound": "Cc1cc(N(C[C@H](O)CO)C(N)=O)cc(C)c1CCS(=O)(=O)N1CCC2(CC1)N=C(C1CCC(C)CC1)NC2=O", "note": "(stereo partly drawn) [Compound 830, 1-((S)-2,3-dihydroxy-propyl)-1-(3,5-dimethyl-4-{2-[2-(4-methyl-cyclohexyl)-4-oxo-1,3,8-triaza-spiro[4.5]dec-1-ene-8-sulfonyl]-ethyl}-phenyl)-urea]", "cAMP production activity (%)": 73}, {"compound": "Cc1cc(C(=O)N2CCC(O)(CO)CC2)cc(C)c1CCS(=O)(=O)N1CCC2(CC1)N=C(c1cccc(OC(F)(F)F)c1)NC2=O", "note": "[Compound 831, 8-{2-[4-(4-hydroxy-4-hydroxymethyl-piperidine-1-carbonyl)-2,6-dimethyl-phenyl]-ethanesulfonyl}-2-(3-trifluoromethoxy-phenyl)-1,3,8-triaza-spiro[4.5]dec-1-en-4-one]", "cAMP production activity (%)": 4.7}, {"compound": "CCCCCCCCCC1=NC2(CCN(S(=O)(=O)CCc3c(C)cc(N4C(=O)CNC4=O)cc3C)CC2)C(=O)N1", "note": "[Compound 832, 3-{3,5-dimethyl-4-[2-(2-nonyl-4-oxo-1,3,8-triaza-spiro[4.5]dec-1-ene-8-sulfonyl)-ethyl]-phenyl}-imidazolidine-2,4-dione]", "cAMP production activity (%)": 84}, {"compound": "Cc1cc(N2C(=O)NC(COC(C)(C)C)C2=O)cc(C)c1CCS(=O)(=O)N1CCC2(CC1)N=C([C@H]1CC[C@H](C)CC1)NC2=O", "note": "(stereo partly shown) [Compound 833, 5-tert-butoxymethyl-3-(3,5-dimethyl-4-{2-[2-(4-methyl-cyclohexyl)-4-oxo-1,3,8-triaza-spiro[4.5]dec-1-ene-8-sulfonyl]-ethyl}-phenyl)-imidazolidine-2,4-dione]", "cAMP production activity (%)": 34}, {"compound": "Cc1cc(N2NCCC2=O)ccc1CCS(=O)(=O)N1CCC2(CC1)N=C([C@H]1CC[C@H](C)CC1)NC2=O", "note": "[Compound 834, 2-(4-methyl-cyclohexyl)-8-{2-[2-methyl-4-(5-oxo-pyrazolidin-1-yl)-phenyl]-ethanesulfonyl}-1,3,8-triaza-spiro[4.5]dec-1-en-4-one]", "cAMP production activity (%)": 76}, {"compound": "O=C1NC(C2CCCCC2)=NC12CCN(S(=O)(=O)CCc1cccc3cc[nH]c13)CC2", "note": "[Compound 835, 2-Cyclohexyl-8-[2-(1H-indol-7-yl)-ethanesulfonyl]-1,3,8-triaza-spiro[4.5]dec-1-en-4-one]", "cAMP production activity (%)": 50}, {"compound": "O=C1NC(C2CCCCC2)=NC12CCN(S(=O)(=O)CCc1cc3cc[nH]c3cc1C(F)(F)F)CC2", "note": "[Compound 836, 2-cyclohexyl-8-[2-(6-trifluoromethyl-1H-indol-5-yl)-ethanesulfonyl]-1,3,8-triaza-spiro[4.5]dec-1-en-4-one]", "cAMP production activity (%)": 56}, {"compound": "Cc1cc2[nH]ccc2cc1CCS(=O)(=O)N1CCC2(CC1)N=C(C1CCCCC1)NC2=O", "note": "[Compound 837, 2-cyclohexyl-8-[2-(6-methyl-1H-indol-5-yl)-ethanesulfonyl]-1,3,8-triaza-spiro[4.5]dec-1-en-4-one]", "cAMP production activity (%)": 66}, {"compound": "O=C1NC(C2CCCCC2)=NC12CCN(S(=O)(=O)CCc1ccc3c(ccn3CCOCCO)c1)CC2", "note": "[Compound 838, 2-cyclohexyl-8-(2-{1-[2-(2-hydroxy-ethoxy)-ethyl]-1H-indol-5-yl}-ethanesulfonyl)-1,3,8-triaza-spiro[4.5]dec-1-en-4-one]", "cAMP production activity (%)": 75}, {"compound": "O=C1NC(C2CCCCC2)=NC12CCN(S(=O)(=O)CCc1cc3nc[nH]c3cc1C(F)(F)F)CC2", "note": "[Compound 839, 2-cyclohexyl-8-[2-(6-trifluoromethyl-1H-benzimidazol-5-yl)-ethanesulfonyl]-1,3,8-triaza-spiro[4.5]dec-1-en-4-one]", "cAMP production activity (%)": 57}, {"compound": "O=C1NC(c2cccc(C(F)(F)F)c2)=NC12CCN(S(=O)(=O)CCc1cccc3c1ccn3C[C@H](O)CO)CC2", "note": "[Compound 840, 8-{2-[1-((S)-2,3-dihydroxy-propyl)-1H-indol-4-yl]-ethanesulfonyl}-2-(3-trifluoromethyl-phenyl)-1,3,8-triaza-spiro[4.5]dec-1-en-4-one]", "cAMP production activity (%)": 98}, {"compound": "Cc1cc(C(=O)N2CCS(=O)(=O)CC2)ccc1CCS(=O)(=O)N1CCC2(CC1)N=C(C1CCCCC1)NC2=O", "note": "[Compound 841, 2-cyclohexyl-8-{2-[4-(1,1-dioxo-1λ^6-thiomorpholine-4-carbonyl)-2-methyl-phenyl]-ethanesulfonyl}-1,3,8-triaza-spiro[4.5]dec-1-en-4-one]", "cAMP production activity (%)": 45}, {"compound": "Cc1cc(NCCN(C)C)ccc1CCS(=O)(=O)N1CCC2(CC1)N=C(C1CCCCC1)NC2=O", "note": "[Compound 842, 2-cyclohexyl-8-{2-[4-(2-dimethylamino-ethylamino)-2-methyl-phenyl]-ethanesulfonyl}-1,3,8-triaza-spiro[4.5]dec-1-en-4-one]", "cAMP production activity (%)": 81}, {"compound": "Cc1cc(C(=O)N2CCN(C)CC2)ccc1CCS(=O)(=O)N1CCC2(CC1)N=C(c1cccc(OC(F)(F)F)c1)NC2=O", "note": "[Compound 843, 8-{2-[2-methyl-4-(4-methyl-piperazine-1-carbonyl)-phenyl]-ethanesulfonyl}-2-(3-trifluoromethoxy-phenyl)-1,3,8-triaza-spiro[4.5]dec-1-en-4-one]", "cAMP production activity (%)": 77}, {"compound": "Cc1cc(S(=O)(=O)NCCN(C)C)ccc1CCS(=O)(=O)N1CCC2(CC1)N=C(C1CCCCC1)NC2=O", "note": "[Compound 844, 4-[2-(2-cyclohexyl-4-oxo-1,3,8-triaza-spiro[4.5]dec-1-ene-8-sulfonyl)-ethyl]-N-(2-dimethylamino-ethyl)-3-methyl-benzenesulfonamide]", "cAMP production activity (%)": 86}, {"compound": "Cc1cc(NCC(=O)N2CCN(C)CC2)ccc1CCS(=O)(=O)N1CCC2(CC1)N=C(c1cccc(OC(F)(F)F)c1)NC2=O", "note": "[Compound 845, 8-(2-{2-methyl-4-[2-(4-methyl-piperazin-1-yl)-2-oxo-ethylamino]-phenyl}-ethanesulfonyl)-2-(3-trifluoromethoxy-phenyl)-1,3,8-triaza-spiro[4.5]dec-1-en-4-one]", "cAMP production activity (%)": 68}, {"compound": "Cc1cc(S(=O)(=O)Nc2ccncc2)ccc1CCS(=O)(=O)N1CCC2(CC1)N=C(c1cccc(OC(F)(F)F)c1)NC2=O", "note": "[Compound 846, 3-methyl-4-{2-[4-oxo-2-(3-trifluoromethoxy-phenyl)-1,3,8-triaza-spiro[4.5]dec-1-ene-8-sulfonyl]-ethyl}-N-pyridin-4-yl-benzenesulfonamide]", "cAMP production activity (%)": 47}, {"compound": "Cc1cc(NCC(N)=O)ccc1CCS(=O)(=O)N1CCC2(CC1)N=C(c1cccc(OC(F)(F)F)c1)NC2=O", "note": "[Compound 847, 2-(3-methyl-4-{2-[4-oxo-2-(3-trifluoromethoxy-phenyl)-1,3,8-triaza-spiro[4.5]dec-1-ene-8-sulfonyl]-ethyl}-phenylamino)-acetamide]", "cAMP production activity (%)": 71}, {"compound": "Cc1cc(S(=O)(=O)NC2CCN(Cc3ccccc3)CC2)ccc1CCS(=O)(=O)N1CCC2(CC1)N=C(c1cccc(OC(F)(F)F)c1)NC2=O", "note": "[Compound 848, N-(1-benzyl-piperidin-4-yl)-3-methyl-4-{2-[4-oxo-2-(3-trifluoromethoxy-phenyl)-1,3,8-triaza-spiro[4.5]dec-1-ene-8-sulfonyl]-ethyl}-benzenesulfonamide]", "cAMP production activity (%)": 77}, {"compound": "Cc1cc(C(=O)N2CCN(C(C)C)CC2)ccc1CCS(=O)(=O)N1CCC2(CC1)N=C(c1cccc(OC(F)(F)F)c1)NC2=O", "note": "[Compound 849, 8-{2-[4-(4-isopropyl-piperazine-1-carbonyl)-2-methyl-phenyl]-ethanesulfonyl}-2-(3-trifluoromethoxy-phenyl)-1,3,8-triaza-spiro[4.5]dec-1-en-4-one]", "cAMP production activity (%)": 124}, {"compound": "O=C1NC(c2cccc(OC(F)(F)F)c2)=NC12CCN(S(=O)(=O)CCc1ccc3c(ccn3C[C@H](O)CO)c1)CC2", "note": "[Compound 850, 8-{2-[1-((S)-2,3-dihydroxy-propyl)-1H-indol-5-yl]-ethanesulfonyl}-2-(3-trifluoromethoxy-phenyl)-1,3,8-triaza-spiro[4.5]dec-1-en-4-one]", "cAMP production activity (%)": 82}, {"compound": "Cc1cc(S(=O)(=O)NC[C@@H](O)CO)ccc1CCS(=O)(=O)N1CCC2(CC1)N=C(c1cccc(OC(F)(F)F)c1)NC2=O", "note": "[Compound 851, N—((R)-2,3-dihydroxy-propyl)-3-methyl-4-{2-[4-oxo-2-(3-trifluoromethoxy-phenyl)-1,3,8-triaza-spiro[4.5]dec-1-ene-8-sulfonyl]-ethyl}-benzenesulfonamide]", "cAMP production activity (%)": 83}]}]}
